Experimental data: US4663340A, “Alpha-adrenoreceptor agonistic 2-[(2-cyclopropyl-5-methyl- or 2-cyclopropyl-5-chlorophenoxy)methyl]-2-imidazolines” (priority 1984, dated 1987)
“Also recorded” adds a separate entry of the source.

Experiments:
[1] = system: postsynaptic α1-adrenoceptor; settings: literature; cited from earlier work
[2] = system: presynaptic α2-adrenoceptor; assay: Presynaptic α2-adrenoceptor antagonist activity: restoration of tachycardia reduced by clonidine in pithed rat; settings: for Heartbeat frequency under electric stimulation (supramaximal tachycardia): before clonidine and tested substance; for Heartbeat frequency under electric stimulation and after clonidine: clonidine 40 μg/kg, I.V., before tested substance; for restoration of submaximal tachycardia / presynaptic α2-adrenoceptor antagonist activity: in words, after clonidine 40 μg/kg I.V.
α1-adrenoceptor = assay: Vasoconstrictor effect in pithed rat after reserpine pre-treatment (direct action); format: in vivo, Wistar rat; settings: except in very high doses
Source text: (§1) (1) The vaso-constrictor properties and potency of the compounds (I) object of the present invention have been investigated and quantified in the anaesthetized pithed rat by determination of their dose-[…] response curves after intravenous administration, according to the technique described by Shipley and Tilden (Proceedings of Society of Experimental Biology, 1947, 64, pages 453-455). This technique allows assessment of the postsynaptic α-adrenoceptor agonist properties of a drug. […] For each of these drugs, log of cumulative doses-hypertensive response curves after intravenous administration have been drawn in groups of eight Wistar rats, anaesthetized, pithed, bilaterally vagotomized, atropinized and treated with d-tribocurarine. ED50 s (doses in mg/kg of the base inducing 50% of the maximal response) were then calculated for each drug and compared to those of the reference compounds.
(a) ND 83201 is a directly acting α1 -adrenoceptor agonist.

[3] = system: postsynaptic α1-adrenoceptor; assay: Vasoconstrictor effect in pithed rat after specific postsynaptic α1-adrenoceptor antagonist prazosine; format: in vivo, Wistar rat; settings: for ED50 after prazosine: I.V.
Source text: as §1
(§2) For each of the three drugs log of cumulative doses-hypertensive response curves after intravenous administration have been drawn and their ED50 s (in μg per kg) were calculated before and after administration of the antagonists in groups of 8 animals each.

[4] = system: postsynaptic α2-adrenoceptor; assay: Vasoconstrictor effect in pithed rat after specific postsynaptic α2-adrenoceptor antagonist yohimbine; format: in vivo, Wistar rat; settings: for ED50 after yohimbine: I.V.; for ED50 after yohimbine / antagonism of vasoconstrictor effect by yohimbine / ED50 after / ED50 before yohimbine: yohimbine 60 μg/kg/min./5 mins.; for postsynaptic α2-adrenoceptor agonist properties / antagonism of vasoconstrictor effect by yohimbine: in words
Source text: as §1, §2

[5] = system: postsynaptic α1-adrenoceptor; assay: Vasoconstrictor (hypertensive) dose-response in anaesthetized pithed rat, i.v.; format: in vivo, Wistar rat; settings: for Relative power towards Cirazoline: Table I; for Relative power towards Cirazoline / ED50 / potency relative to Cirazoline / potency relative to Fenoxazoline: pithed rat; for ED50 (before antagonists): Table II, before administration of antagonists; for ED50: dose of base inducing 50% of maximal response
Source text: as §1
Table I reports the values of these ED50 s. It appears from this table that compounds ND 83201 and ND 83204 are the most powerful vaso-constrictor agents, their potency being about 1.75 times that of Cirazoline and three times that of Fenoxazoline.

[6] = Stability of aqueous solution (hydrolysis of the imidazoline cycle); format: physicochemical; settings: 1 per mill aqueous solution, room temperature
[7] = system: presynaptic α2-adrenoceptor; assay: Presynaptic α2-adrenoceptor agonist activity: reduction of induced submaximal tachycardia in pithed rat; format: in vivo, Wistar rat; settings: for effect on induced submaximal tachycardia / presynaptic α2-adrenoceptor agonist activity: electrically stimulated spinal cord
Solubility in water = format: physicochemical; settings: hydrochloride
β-adrenoceptor = assay: Vasoconstrictor ED50 after β-adrenoceptor antagonist pretreatment (β-adrenoceptor postsynaptic agonist activity); format: in vivo, Wistar rat; settings: propranold 150 μg/kg/min/5 min
Source text: (d) ND 83201 has no β-adrenoceptor postsynaptic agonist activity.

Row | Compound | Heartbeat frequency under electric stimulation (supramaximal tachycardia) [2] | Heartbeat frequency under electric stimulation and after clonidine [2] | restoration of submaximal tachycardia / presynaptic α2-adrenoceptor antagonist activity [2] | effect of reserpine pre-treatment on vasoconstrictor effects (α1-adrenoceptor) | ED50 after prazosine ([3]; prazosine 20 μg/kg/min./5 min.) | ED50 after / ED50 before prazosine ([3]; prazosine 20 μg/kg/min./5 min.) | ED50 after yohimbine [4] | antagonism of vasoconstrictor effect by yohimbine [4] | ED50 after / ED50 before yohimbine [4] | Relative power towards Cirazoline [5] | ED50 (before antagonists) [5] | ED50 [5] | effect on induced submaximal tachycardia / presynaptic α2-adrenoceptor agonist activity [7] | further results
1 | c1ccc(C2CC2)c(OCC2=NCCN2)c1 [Cirazoline, (2'-cyclopropyl)-2-phenyloxymethyl-Δ2-imidazoline] | 452.1 ± 10.5 | 395.7 ± 14.1 | neither and no effect and no | not, except in very high doses, modified | 8.568 ± 0.721 µg/kg | 7.75 | 1.180 ± 0.108 µg/kg | almost not antagonized by yohimbine | 1.05 | 1 | 1.105 ± 0.132 µg/kg | 1.105 ± 0.132 µg/kg | completey devoid of any presynaptic α2 -adrenoceptor agonist activity and no | known vasoconstrictor / postsynaptic α1-adrenoceptor agonist activity [1]: the most powerful and specific postsynaptic α1-adrenoceptor agonist known up to now; also recorded: powerful nasal vasoconstrictor; nature of agonist effect (postsynaptic α1-adrenoceptor) ([3]; in words): specific and direct postsynaptic α1 -adrenoceptor agonist effects; postsynaptic α2-adrenoceptor agonist properties [4]: no postsynaptic α2-adrenoceptor agonist; appearance of hydrolysis product (amino-amide (V)) in aqueous solution [6]: after a few days the appearance of the cleaving product by hydrolysis of the imidazoline cycle
2 | CC(C)c1ccccc1OCC1=NCCN1 [Fenoxazoline] | – | – | – | not, except in very high doses, modified | 16.205 ± 1.240 µg/kg | 9.05 | 1.804 ± 0.237 µg/kg | almost not antagonized by yohimbine | 1.01 | 0.62 | 1.790 ± 0.147 µg/kg | 1.790 ± 0.147 µg/kg | – | known vasoconstrictor / postsynaptic α1-adrenoceptor agonist activity [1]: postsynaptic α1 -adrenoceptor agonist
3 | Brc1ccc(C2CC2)c(OCC2=NCCN2)c1 [ND 83 202, (5'-bromo-2'-cyclopropyl)-2-phenoxymethyl-Δ2-imidazoline] | – | – | – | – | – | – | – | – | – | 0.25 | – | 4.422 ± 0.329 µg/kg | – | –
4 | CCCCCc1ccc(C2CC2)c(OCC2=NCCN2)c1 [ND 83 203, (5'-n-pentyl-2'-cyclopropyl)-2-phenyloxymethyl-Δ2-imidazoline] | – | – | – | – | – | – | – | – | – | 0.015 | – | 74.182 ± 6.667 µg/kg | – | –
5 | Clc1ccc(C2CC2)c(OCC2=NCCN2)c1 [ND 83 204, (5'-chloro-2'-cyclopropyl)-2-phenoxymethyl-Δ2-imidazoline] | – | – | – | – | – | – | – | – | – | 1.72 | – | 0.644 ± 0.050 µg/kg | – | potency relative to Cirazoline [5]: about 1.75 times; potency relative to Fenoxazoline [5]: three; appearance of hydrolysis product (amino-amide (V)) in aqueous solution [6]: even after one month, no trace of hydrolysis is yet detectable; solubility in water (Solubility in water): not very soluble in water
6 | Cc1ccc(C2CC2)c(OCC2=NCCN2)c1 [ND 83201, (5'-methyl-2'-cyclopropyl)-2-phenyloxymethyl-Δ2-imidazoline] | 448.7 ± 7.7 | 391.2 ± 5.9 | no presynaptic α2 -adrenoceptor antagonist activity and no effect and no | not, except in very high doses, modified | 7.284 ± 0.974 µg/kg | 11.56 | 0.805 ± 0.076 µg/kg | almost not antagonized by yohimbine | 1.25 | 1.75 | 0.630 ± 0.060 µg/kg | 0.630 ± 0.060 µg/kg | completey devoid of any presynaptic α2 -adrenoceptor agonist activity and no | ED50 change after β-adrenoceptor antagonist / β-adrenoceptor postsynaptic agonist activity (β-adrenoceptor): not modified; nature of agonist effect (postsynaptic α1-adrenoceptor) ([3]; in words): specific and direct postsynaptic α1 -adrenoceptor agonist effects; antagonism of vasoconstrictor effect by prazosine ([3]; in words, prazosine 20 μg/kg/min./5 min.): strongly antagonized by prazosine and even slightly more than those of Cirazoline and Fenoxazoline; postsynaptic α2-adrenoceptor agonist properties [4]: no postsynaptic α2-adrenoceptor agonist; potency relative to Cirazoline [5]: about 1.75 times; potency relative to Fenoxazoline [5]: three; solubility in water (Solubility in water): not very soluble in water; effect on induced submaximal tachycardia / presynaptic α2-adrenoceptor agonist activity ([7]; listed as ND 83 201): no presynaptic α2 -adrenoceptor agonist activity
7 | Cc1ccc(N(CC2=NCCN2)c2cccc(O)c2)cc1 [Phentolamine] | 455.6 ± 11.5 | 411.2 ± 8.9 | resores sub-maximal tachycardia | – | – | – | – | – | – | – | – | – | – | –
8 | Clc1cccc(Cl)c1N=C1NCCN1 [clonidine] | – | – | – | – | – | – | – | – | – | – | – | – | reduced the submaximal tachycardia | antagonism of clonidine effect by yohimbine ([7]; submaximal tachycardia): effect antagonized by yohimbine
